According to US9744250B2, “Chemical model of a neurodegenerative disease, method for preparation and uses of same” (priority 2012, dated 2017):
pEC50: −log10 of the molar value.

Tests used:
[1] = tested on: respiratory chain complexes II-V of rat cerebral cortex mitochondria; experiment: Respiratory control after induction of complex II by succinate and inhibition of complex I by rotenone; assay type: biochemical; details: 1 mM, succinate
Procedure: The animal was then decapitated in order to collect from the brain either the cortex or the striatum, which were quickly placed in a Potter Elvejhem® containing 6 ml of extraction buffer at 4° C. (250 mM sucrose, 40 mM KCl, 2 mM EGTA, lmg/ml BSA, 20 mM Tris, pH=7.2). This mixture was homogenized to break open the cells and release the mitochondria and then centrifuged at 2000 g for 8 minutes to remove the larger membrane debris and the nuclei from the pellet. The supernatant was then recovered and centrifuged at 13,000 g for 11 minutes. The supernatant was discarded while the pellet containing a mitochondria-rich fraction was resuspended in 500 μl of respiration buffer at 4° C. (300 mM D-mannitol, 10 mM KCl, 10 mM KH2PO4, 5 mM MgCl2, pH=7.2). […]
Added to the polarography chamber (Hansatech) were 30 μl of mitochondria solution (0.2 mg), 460 μL of respiration buffer, 5 μl of test compound solution (meaning MPP+ or furosemide pyridinium) (or its solubilizing solvent). […] The effect of the compound on respiratory control was evaluated (ratio of stage 3 to 4), which corresponds to the coupling of the respiratory chain, or in other words the ATP synthesis at complex V and the oxygen consumption due to complexes I to IV. The results are expressed as percentages of the value measured for mitochondria not treated with the test compound (but treated with the solubilizing solvent). […]

[2] = tested on: mice; experiment: Lethality of 7-day oral administration in mice; assay type: in vivo, mouse; details: daily dose of 20 mg/kg for seven days
Procedure: (§1) Swiss mice were divided into two groups of five animals (experimental and control). The experiments were performed independently two times. The mice of the experimental group were exposed to furosemide pyridinium for 7 days at a daily dose of 20 mg/kg. The furosemide pyridinium was administered orally in the drinking water. The mice were sacrificed 30 days after the end of the furosemide pyridinium treatment.

[3] = tested on: SH-SY5Y neuronal cells; experiment: Cell viability test in MTT; assay type: cell-based, human
Procedure: (§2) Cells from SH-SY5Y human neuroblastomas were cultured in a DMEM medium containing 4.5 g·L^−1 glucose, 10% fetal calf serum, and 1% penicillin/streptomycin, and placed in an incubator at 37° C. with 7% CO2.
(§3) In the various experiments, the SH-SY5Y cells were seeded at a density of 4×10^4 cells/mL. 24 h after seeding, the cells were exposed to the various test compounds at 37° C. for 24 h, 48 h, 72 h, or 96 h.
(§4) This test consisted of rapidly measuring cellular metabolic activity in the presence of the study compound at different concentrations, in order to conduct a dose-response study. To do this, the tetrazolium salt MTT, 3-(4,5-dimethylthiazol-2-yl)-2,5-diphenyltetrazolium bromide (Amoroso et al., Biochim Biophys Acta, 1999, 1452(2):151-60), was placed in contact with the cells. MTT is reduced to formazan by living cells that have the capacity to metabolize it, unlike dead cells. To conduct this test, SH-SY5Y neuronal cells in 48-well plates were incubated for 24 h, 48 h, 72 h, and 96 h, with furosemide pyridinium at concentrations ranging from 0 to 1000 μM. Then MTT (0.5 mg/ml final) was added to each well and incubated at 37° C. for 2 h. At the end of incubation, after carefully removing the medium, DMSO was added (200 μL) to dissolve the cell membranes and the formazan crystals formed by the living cells. The toxicity of the molecule was evaluated by determining the amount of reduced MTT, doing so by measuring the absorbance at 550 nm as this value is proportional to the number of living cells. The results were expressed as a function of the values obtained for cells treated only with the solvent used to dissolve the compound of interest. To compare the toxicity of furosemide pyridinium to that of MPP+, the cells were incubated in the presence of MPP+ (0 to 1000 μM) for 6 h. The culture medium was replaced and the cells were incubated at 37° C. for an additional 24 h (no MPP+). Cell survival was measured at the end of these 24 hours of incubation as described above. When evaluating the effect of different concentrations of α-tocopherol (vitamin E), a membrane antioxidant, the cells were pretreated for 24 h with this antioxidant before being exposed to furosemide pyridinium at a concentration of 0.5 mM under the same experimental conditions as above.

[4] = Cell viability test in MTT; assay type: cell-based, human; details: human, SH-SY5Y neuroblastoma cells, 96 h of incubation, read-out: reduction of cell viability
Procedure: as §2, §3, §4

[5] = tested on: tyrosine hydroxylase; experiment: Immunohistochemistry of tyrosine hydroxylase in exposed mice; assay type: in vivo, mouse; details: 20 mg/kg/day oral 7 days, 30 days after end of exposure
Procedure: as §1
For this, the mice were anesthetized with pentobarbital (50 mg/Kg), then an intracardiac infusion of NaCl (0.9%) was administered, followed by fixation by an infusion of 4% paraformaldehyde in 0.1M phosphate buffer, pH 7.2. The brain was removed, placed in NaCl (0.9%) at 4° C., and frozen in Tissue Tek immersed in a cold isopentane bath. Coronal sections of eight microns were obtained using a cryostat and were processed for immunohistochemistry (labeling the tyrosine hydroxylase and the Ser129-phosphorylated alpha-synuclein).

SMILES: NS(=O)(=O)c1cc(C(=O)[O-])c(-[n+]2cccc(O)c2)cc1Cl [furosemide pyridinium, 4-chloro-2-(3-hydroxypyridinium-1-yl)-5-sulfamoylbenzoate]
- respiratory control of cortex mitochondria after induction by complex II [1]: not modified
- lethality [2]: not lethal
- decrease in cell survival ([3]; 0.5 mM, 96 h): about 20%
- effect on cell survival ([3]; 24 h of incubation, even at 1 mM): no significant effect
- pEC50 ([3]; Homo sapiens, 96 h of incubation, estimated, read-out: EC50 (cell survival)): 3.01
- cytotoxicity at 96 h [4]: ~60%
- labeling of tyrosine hydroxylase in the striata [5]: net reduction
